Test results from PMC6151560, “Antibacterial and Antitubercular Activities of Cinnamylideneacetophenones” (Molecules : A Journal of Synthetic Chemistry and Natural …, 2017).
In brackets after ≈: the same amount, converted by molar mass. Where two headings read alike, the source gives them in different places.

Key:
[1] = tested on: Mycobacterium tuberculosis H37Rv (ATCC 27294); experiment: Antitubercular REMA (Resazurin Microtiter Assay); assay type: cell-based; conditions: Mycobacterium tuberculosis, 168 h, read-out: Mt MIC
E. coli = tested on: E. coli; parameters: method as in PMID 17662960; conditions: cited from earlier work
S. aureus strains = tested on: S. aureus strains; parameters: method as in PMID 28066373; conditions: cited from earlier work
M. tuberculosis = tested on: M. tuberculosis; parameters: method as in PMID 26400221; conditions: cited from earlier work
[2] = tested on: Escherichia coli (ATCC 10536); experiment: Antibacterial broth microdilution (MIC), E. coli; conditions: for MIC: ATCC10536, 24 h, read-out: Ec MIC
[3] = tested on: Staphylococcus aureus (ATCC 14458); experiment: Antibacterial broth microdilution (MIC/MBC), S. aureus; conditions: for MIC: ATCC14458, 24 h
[4] = tested on: Streptococcus mutans (ATCC 25175); experiment: Antibacterial broth microdilution (MIC/MBC), S. mutans; conditions: for MIC: ATCC25175, 24 h; for MBC: ATCC25175, read-out: Sm MBC
[5] = tested on: Pseudomonas aeruginosa (ATCC 15442); experiment: Antibacterial broth microdilution (MIC), P. aeruginosa; conditions: for MIC: ATCC15442, 24 h, read-out: Pa MIC
[6] = tested on: Streptococcus sanguinis (ATCC 10557); experiment: Antibacterial broth microdilution (MIC/MBC), S. sanguinis; conditions: for MIC: ATCC10557, 24 h; for MBC: ATCC10557, read-out: Ss MBC
[7] = tested on: A549 (human lung adenocarcinoma epithelial cell line, ATCC CCL-185); experiment: Cytotoxicity on lung cells (resazurin), A549; assay type: cell-based; conditions: 24 h incubation
[8] = DPPH radical scavenging ability; conditions: at 1600, 800, 400, and 200 µM; DPPH 100 μM, 30 min, 25 °C
Description: The low selectivity of the cinnamylideneacetophenones 3 and 4 can be correlated with their phenolic nature. Studies report the ability of phenolic compounds to act on widespread radical processes shared by eukaryotic and prokaryotic cells. We hypothesized this behavior may be responsible by simultaneous activity toward bacteria and pulmonary cells. Therefore, we evaluated the radical scavenging ability of 3 and 4 using DPPH (2,2-diphenyl-1-picrylhydrazyl) protocol. […] Altogether, low selectivity of 3 and 4 cannot be strongly related to radical processes. Quercetin and gallic acid were used as positive controls due to their phenolic nature and potent radical scavenging ability.
Radical scavenging activity of compounds 3 and 4 was determined using 2,2-diphenyl-1-picrylhydrazyl (DPPH). Aliquots of 10 µL of 3, 4, and positive controls (quercetin and gallic acid) at concentrations 1600, 800, 400, and 200 μM (in EtOH) were individually added in 190 µL DPPH (100 μM). The mixtures were incubated in the dark at 25 °C for 30 min. Remaining DPPH was determined spectroscopically at 490 nm by blanking against absolute ethanol. Radical scavenging ability was expressed by using mean values obtained from triplicates as the percentage of radicals reduced by calculating the following equation: DPPH scavenging % = [1 − (Asample/A) × 100], where A is test absorbance without sample (only EtOH and DPPH) and Asample is test absorbance with compounds.

[9] = Cytotoxicity on lung cells (resazurin), MRC-5; conditions: human, MRC-5 cells (lung fibroblast cell line, ATCC CCL-171)
[10] = tested on: MRC-5 (human lung fibroblast cell line, ATCC CCL-171); experiment: Cytotoxicity on lung cells (resazurin), MRC-5; conditions: Homo sapiens, MRC5, read-out: IC50 on pulmonary cells
[11] = Partition coefficient log Po/w by HPLC-PDA (OECD method); conditions: n-octanol/water (from HPLC retention on a C-18 column)
in vitro = conditions: human
[12] = broth microdilution, 24 h, tested 3.9 to 500 µM
[13] = ATCC14458, read-out: MIC and MBC values

| SMILES | MIC [1] | MIC [2] | MIC ([3]; read-out: Sa MIC) | MIC ([4]; read-out: Sm MIC) | MIC [5] | MIC ([6]; read-out: Ss MIC) | IC50 [7] | percentages of DPPH scavenging ability [8] | IC50 at 24 h [9] | IC50 [10] | MBC [3, 13] | MBC ([3]; ATCC14458, read-out: Sa MBC) | MBC [4] | MBC [6] | also measured |
| --- | --- | --- | --- | --- | --- | --- | --- | --- | --- | --- | --- | --- | --- | --- | --- |
| O=C/C=C/c1ccccc1 [Compound 1, Cinnamaldehyde, reference compound] | > 200 µM | > 500 µM | > 500 µM | > 500 µM | > 500 µM | > 500 µM | – | – | – | – | – | – | – | – | MIC against E. coli (E. coli): 1000 µg/mL; MIC against E. coli (E. coli; converted value in brackets): 7566 µM; MIC against S. aureus strains (S. aureus strains): 250 µg/mL; MIC against S. aureus strains (S. aureus strains; converted value in brackets): 1891 µM; MIC against M. tuberculosis (M. tuberculosis): 3.12 µg/mL; MIC against M. tuberculosis (M. tuberculosis; converted value in brackets): 23 µM; Ec MIC ([2]; broth microdilution, 24 h): >500 µM; Sa MIC [3, 12]: >500 µM; Sm MIC [4, 12]: >500 µM; Pa MIC ([5]; broth microdilution, 24 h): >500 µM; Ss MIC [6, 12]: >500 µM |
| O=C(/C=C/C=C/c1ccccc1)c1cccc(O)c1 [Compound 3, (2E,4E)-1-(3-hydroxyphenyl)-5-phenylpenta-2,4-dien-1-one] | – | > 500 µM | – | – | > 500 µM | – | 96.7 µM | below 8% | 46.3 µM | 46.3 to 96.7 µM | 77.9 to 312 µM (≈ 19.5 to 78.1 µg/mL) | 156 µM (≈ 39 µg/mL) | 156 µM (≈ 39 µg/mL) | 156 µM (≈ 39 µg/mL) | MIC ([1]; M. tuberculosis H37Rv, REMA, 7 days, lowest concentration giving 90% inhibition of growth): 88.8 µM (≈ 22.2 µg/mL); MIC ([3]; read-out: Sa MIC, Staphylococcus aureus, broth microdilution, 24 h, tested 3.9 to 500 µM): 77.9 µM (≈ 19.5 µg/mL); MIC ([4]; read-out: Sm MIC, Streptococcus mutans, broth microdilution, 24 h, tested 3.9 to 500 µM): 77.9 µM (≈ 19.5 µg/mL); chromatographic logP [11]: 2.7; MIC ([6]; read-out: Ss MIC, Streptococcus sanguinis, broth microdilution, 24 h, tested 3.9 to 500 µM): 77.9 µM (≈ 19.5 µg/mL) |
| O=C(/C=C/C=C/c1ccccc1)c1ccc(O)cc1 [Compound 4, (2E,4E)-1-(4-hydroxyphenyl)-5-phenylpenta-2,4-dien-1-one] | 81.9 µM (≈ 20.5 µg/mL) | > 500 µM | 77.9 µM (≈ 19.5 µg/mL) | 156 µM (≈ 39 µg/mL) | > 500 µM | 156 µM (≈ 39 µg/mL) | 77.5 µM | below 8% | – | 46.3 to 96.7 µM | 77.9 to 312 µM (≈ 19.5 to 78.1 µg/mL) | 77.9 µM (≈ 19.5 µg/mL) | 312 µM (≈ 78.1 µg/mL) | 312 µM (≈ 78.1 µg/mL) | chromatographic logP (physchem): 2.6; IC50 (in vitro): 53.1 µM |
| COc1cccc2c1C(=O)c1c(O)c3c(c(O)c1C2=O)C[C@@](O)(C(=O)CO)C[C@@H]3O[C@H]1C[C@H](N)[C@H](O)[C@H](C)O1 [doxorubicin, reference compound] | – | – | – | – | – | – | 1.8 µM | – | 0.7 µM | – | – | – | – | – | – |
